These results are taken from EP4559919A1, “TRICYCLIC-CONTAINING MACROCYCLIC COMPOUND AND USE THEREOF” (Medshine Discovery Inc., priority 2022, dated 2024).

One data set deals with T1, ALK(G1202R/L1196M) (Homo sapiens, UniProt Q9UM73, G1202R/L1196M).
T1 construct: purchased Carna
The experiment in a line: In vitro kinase inhibitory activity assay, Experimental method 2 (ADP-Glo). The class given is biochemical. Particulars: Experimental method 2; ATP 5.0 µM, substrate IGF1; read-out: Kinase half maximal inhibitory concentration IC50 ALK^G1202R/L1196M. The procedure: (§1) The kinase inhibitory activity assays of the compounds against ALK, ALK^L1196M, ALK^G1202R, ALK^G1202R/L1196M, ROS1, and TRKB were conducted at Wuhan Heyan Biotechnology Co., Ltd. or Hefei PreceDo Biotechnology Co., Ltd.
(§2) Experimental materials: ALK (G1202R/L1196M) Active and TRKB were purchased from Carna; IGF1 was purchased from GenScript; PolyE4Y1 was purchased from SIGMA; ADP-Glo™ Reagent was purchased from Promega; ATP was purchased from Promega; Kinase Detection Reagent was purchased from Promega; microplate reader ( PerkinElmer).
Reaction system: ALK(G1202R/L1196M) reaction concentration 8.63 nM, ATP concentration 5.0 µM, substrate IGF1 concentration 0.2 µg/µL. ALK(G1202R/L1196M) kinase buffer was 40 mM Tris-HCl (pH 7.5) + 20 mM magnesium chloride + 0.1 mg/mL BSA + 50 µM DTT.
(§3) ALK(G1202R/L1196M) and TRKB detection method: 2 µL of kinase and 1 µL of compound were added to a 384-well plate; 2 µL of substrate/ATP mixture was added and incubated at room temperature in the dark for 60 minutes; 5 µL of ADP-Glo™ reagent was added and incubated at room temperature for 40 minutes; 10 µL of kinase detection reagent was added and incubated at room temperature for 30 minutes; the plate was read on a microplate reader, and luminescence was recorded (integration time set to 0.5 seconds).
(§4) The IC50 value could then be derived by performing a curve fit using a four-parameter logistic model (obtained using the "log(inhibitor) vs. response -- Variable slope" mode in GraphPad Prism).
Background: In ADP-Glo the light output rises with the ADP produced.

The next data set has as its target T2, TRKB (Homo sapiens, UniProt Q16620).
T2 construct: purchased Carna
The data set is described as above. The class given is biochemical. The conditions noted are these: Experimental method 2; ATP 5.0 µM, substrate PolyE4Y1; read-out: Kinase half maximal inhibitory concentration IC50 TRKB. The procedure: as §1, §2
TRKB reaction concentration 4.47 nM, ATP concentration 5.0 µM, substrate PolyE4Y1 concentration 0.2 µg/µL. TRKB kinase buffer was 40 mM Tris-HCl (pH 7.5) + 20 mM magnesium chloride + 2.5 mM manganese chloride + 0.1mg/mL BSA+ 50 µM DTT.
as §3, §4

The test system of data set [1] is Ba/F3-EML4-ALK-G1202R/L1196M. The experiment in a line: Anti-proliferative activity test on Ba/F3 cell lines (CellTiter-Glo). It counts as cell-based. The conditions noted are these: for IC50: Ba/F3 EML4-ALK-G1202R-L1196M, 72 hours, read-out: Half maximal inhibitory concentration IC50 for cells Ba/F3-EML4-ALK-G1202R/L1196 M. The protocol:
(§5) • (1) Cell culture: The cell lines were cultured in an incubator at 37°C with 5% CO2. Regular passaging was performed, and cells in the logarithmic growth phase were selected for plating; • (2) Preparation of compound storage plate: The test compounds were prepared into a 10 mM solution with DMSO (Stock Con.); The compounds were then prepared into a 1 mM solution with DMSO (Work Con.); 1 µL of the stock solution was mixed with 9 µL of DMSO to prepare a 10 µL work solution. • (3) Preparation of 1000× compound storage plate (tube): The compounds were 3-fold serially diluted from […] to the lowest concentration, for a total of 8 concentrations; • (4) Preparation of 20× compound working solution: 98 µL of cell culture medium was added to a flat-bottomed 96-well transparent drug plate. From the 1000× compound storage plate, 2 µL of the compound was pipetted into the cell culture medium in the 96-well transparent drug plate. In the solvent control, 2 µL of DMSO was added. After the compound or DMSO was added, the mixture was homogenized using a pipette. • (5) Cells were stained with trypan blue and viable cells were counted to ensure a cell viability of 90% or more. The cell concentration was adjusted to an appropriate concentration; • (6) 95 µL of cell suspension (2000 cells/well) was added to each well of the compound assay cell plate, and cell-free culture medium containing 0.1% DMSO was added to the Min control wells; • (7) Administration in the compound assay cell plate: 5 µL of 20× compound working solution was added to the cell culture plate, 5 µL of DMSO-cell culture medium mixture was added to the Max control wells, and the final concentration of DMSO was 0.1%; • (8) The culture plate was then incubated in an incubator at 37°C with 5% CO2 for 72 hours; • (9) The following operations were conducted in accordance with the instructions of the Promega CellTiter-Glo Luminescent Cell Viability Assay Kit (Promega-G7573): CellTiter-Glo buffer was thawed and brought to room temperature; CellTiter-Glo substrate was brought to room temperature; CellTiter-Glo buffer was added to a bottle of CellTiter-Glo substrate to dissolve the substrate, thereby preparing CellTiter-Glo working solution; The mixture was slowly vortexed and shaken to be fully dissolved; The cell culture plate was removed and allowed to equilibrate to room temperature for 10 minutes; 50 µL (equal to half the volume of cell culture medium in each well) of CellTiter-Glo working solution was added to each well; The culture plate was shaken on an orbital shaker for 2 minutes to induce cell lysis; The plate was then left at room temperature for 10 minutes to stabilize the luminescent signal; The luminescent signal was detected using a SpectraMax Paradigm plate reader; Cell viability assay was conducted using CellTiter-Glo luminescence method.
(§6) Data analysis: The corresponding […] value (RLU) for each well was obtained from SpectraMax Paradigm readings. […] The inhibition rates corresponding to compounds at different concentrations were calculated in Excel, and the inhibition rate curves were plotted using GraphPad Prism software to calculate relevant parameters, including the maximum and minimum inhibition rates of the cells and the IC50 value.

A further data set has as its system Ba/F3-TEL-TRKB. Described as above. The conditions noted are these: Mus musculus, BaF3; 72 hours; read-out: Half maximal inhibitory concentration IC50 for cells Ba/F3-TEL-TRKB. It counts as cell-based. The protocol: as §5, §6
The nature of data set [2]: In vivo pharmacokinetic testing in mice. On the set-up: species or system male CD-1 mice. The conditions noted are these: mouse, IV, 0.5 mg/kg, plasma.
Experimental: The objective was to study the pharmacokinetic behavior of the compounds of the present disclosure in mice, using male CD-1 mice aged 7 to 9 weeks as test animals. The concentrations of the compounds in plasma at different time points after a single intravenous injection (IV) and oral gavage (PO) administration of the compound were determined using LC/MS/MS.
Two groups of healthy mice (fasted) were administered the compounds via intravenous injection (IV) and oral gavage (PO), with 2 mice in each group.
The test compounds were mixed with the solvent, vortexed, and sonicated to prepare a clear solution with a concentration of 0.5 mg/mL and a pH of 3.3-3.6. The intravenous injection dose for the mice was 1.0 mg/kg. […] The test compounds were mixed with the solvent, vortexed, and sonicated to prepare a homogeneous suspension with particles at a concentration of 0.5 mg/mL and a pH of 6.8-7.0. The oral gavage dose for the mice was 5.0 mg/kg.
The test compound was mixed with the solvent, vortexed, and sonicated to prepare a clear solution with a concentration of 1.0 mg/mL. The intravenous injection dose for the mice was 1.0 mg/kg. […] The test compound was mixed with the solvent, vortexed, and sonicated to prepare a homogeneous suspension with particles at a concentration of 0.5 mg/mL. The oral gavage dose for the mice was 5.0 mg/kg.
The test compounds were mixed with the solvent, vortexed, and sonicated to prepare a clear solution with a concentration of 0.1 mg/mL. The intravenous injection dose for the mice was 0.5 mg/kg. […] The test compound was mixed with the solvent, vortexed, and sonicated to prepare a homogeneous suspension with particles at a concentration of 0.5 mg/mL and a pH of 7.08. The oral gavage dose for the mice was 5.0 mg/kg. After administration, the whole blood was collected at the time points of 0.083 hours, 0.25 hours, 0.5 hours, 1.0 hour, 2.0 hours, 4.0 hours, 8.0 hours, 12.0 hours, and 24.0 hours. Plasma was prepared from the whole blood and analyzed for drug concentration by LC-MS/MS. The pharmacokinetic parameters were calculated using Phoenix WinNonlin 6.3.
The next data set addresses T3, CYP2C9 (Homo sapiens, UniProt P11712).
T3 construct: Mixed human liver microsomes (HLM) purchased from Corning Inc; tissue Corning Inc; host or cells: pooled human liver microsomes
The experiment in a line: Cytochrome P450 isozyme inhibitory activity test (human liver microsomes). It counts as in vitro ADME. Particulars: human liver microsomes 0.1 mg/mL; probe substrate Diclofenac. The procedure:
To test the inhibitory activity of the compounds of the present disclosure on different subtypes of human liver microsomal cytochrome P450 isozymes.
Mixed human liver microsomes (HLM) purchased from Corning Inc. (Steuben, New York, USA); Diclofenac as the probe substrate (10 µM); Sulfaphenazole as the positive control inhibitor; 4'-Hydroxydiclofenac as the metabolite
Preparation of test system working solution: Human liver microsomes (HLM): HLM stock solution at 20.0 mg/mL, working solution at 0.2 mg/mL, final concentration at 0.1 mg/mL; Potassium phosphate buffer: 100 mM; Cofactor working solution: Magnesium chloride, NADP (nicotinamide adenine dinucleotide phosphate), G6P (glucose-6-phosphate), G6PDH (glucose-6-phosphate dehydrogenase), and phosphate buffer or magnesium chloride, NADPH (reduced nicotinamide adenine dinucleotide phosphate) powder, and potassium phosphate buffer; prepared into cofactor working solution at appropriate ratios;
Stop solution: Isotope-labeled 4'-hydroxydiclofenac-d4 stock solution prepared in methanol, then prepared into stop solution using acetonitrile.
In the substrate-free control sample wells of the reaction plate, 100 µL of a mixture of human liver microsome and potassium phosphate buffer was added. At the zero-time point sample wells, 98 µL of a mixture of the human liver microsome and potassium phosphate buffer was added. In the no-inhibitor control (NIC), test compound, and positive control inhibitor sample wells of the reaction plate, 100 µL of a mixture of the human liver microsome and substrate was added. From the dilution plate, 2 µL of blank solvent, test compound working solution (three parallels), and positive control inhibitor working solution (two parallels) were added to the reaction plate. The reaction plate was preheated at 37.0°C for 10 minutes. […] The concentration of specific metabolites in the samples was detected using the liquid chromatography-tandem mass spectrometry (LC-MS/MS) method. […] The IC50 values were calculated using a three-parameter or four-parameter inverse log equation.
In general terms: Liver microsomes are vesicles of endoplasmic reticulum, rich in cytochrome P450 enzymes.

The target in another data set is T4, CYP3A4-M (Homo sapiens, UniProt P08684).
T4 construct: Mixed human liver microsomes (HLM) purchased from Corning Inc; tissue Corning Inc; host or cells: pooled human liver microsomes
T4 sequence (P08684 whole entry): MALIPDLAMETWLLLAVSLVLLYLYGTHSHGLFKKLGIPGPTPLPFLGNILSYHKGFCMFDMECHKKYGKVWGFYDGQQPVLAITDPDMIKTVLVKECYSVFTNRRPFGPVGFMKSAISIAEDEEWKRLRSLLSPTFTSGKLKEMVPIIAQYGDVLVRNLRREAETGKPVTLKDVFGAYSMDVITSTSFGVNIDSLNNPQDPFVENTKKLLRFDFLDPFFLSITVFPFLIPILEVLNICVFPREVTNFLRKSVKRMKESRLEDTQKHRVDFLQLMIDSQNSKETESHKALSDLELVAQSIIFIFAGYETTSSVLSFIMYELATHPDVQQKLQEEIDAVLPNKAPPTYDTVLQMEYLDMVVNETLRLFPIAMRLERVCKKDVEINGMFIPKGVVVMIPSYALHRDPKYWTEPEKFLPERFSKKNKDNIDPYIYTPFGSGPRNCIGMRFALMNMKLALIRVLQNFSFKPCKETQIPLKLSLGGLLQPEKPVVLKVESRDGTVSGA
Described as above. The class given is in vitro ADME. Particulars: human liver microsomes 0.1 mg/mL.

A short description of data set [3]: Cell permeability test, MDCKII-MDR1 monolayer. It counts as in vitro ADME. Particulars: dog, MDCK-MDR1, pH 7.4. The protocol:
The permeability and efflux ratio of the test compounds were evaluated using the MDCKII-MDR1 monolayer cell test system to determine the potential of the compounds to cross the blood-brain barrier and to be effluxed by the P-gp transporter.
MDCKII-MDR1 cells (from the Netherlands Cancer Institute) were seeded into a 96-well cell plate (from Corning) at a cell density of 2.5 × 10^5 cells/mL and cultured for 7 days to form a confluent monolayer.
The apparent permeability coefficient (Papp, cm/s) was calculated using the following formula: Papp = (dCr / dt) × Vr /(A × C0). Herein, dCr/dt is the cumulative concentration of the compound at the receiving end per unit time (µM/s); Vr is the volume of the solution at the receiving end (the volumes of the solution at the apical and basal sides are 0.075 mL and 0.250 mL, respectively); A is the relative surface area of the cell monolayer (0.0804 cm^2); C0 is the initial concentration (nM) of the test compound at the dosing end or the peak area ratio of the control compound. The efflux ratio was calculated using the following formula: ER = Papp(BA) / Papp(AB). The recovery rate was calculated using the following formula: % Recovery = 100 × [(Vr × Cr)+(Vd × Cd)] /(Vd × C0). Herein, C0 is the initial concentration of the test compound at the dosing end (nM) or the peak area ratio of the control compound; Vd is the volume at the dosing end (0.075 mL for the apical side and 0.250 mL for the basal side); Cd and Cr are the final concentrations (nM) of the test compound at the dosing end and the receiving end or the peak area ratios of the control compound, respectively.

The structures appear in SMILES notation.

T2 sequence (Q16620 32-822): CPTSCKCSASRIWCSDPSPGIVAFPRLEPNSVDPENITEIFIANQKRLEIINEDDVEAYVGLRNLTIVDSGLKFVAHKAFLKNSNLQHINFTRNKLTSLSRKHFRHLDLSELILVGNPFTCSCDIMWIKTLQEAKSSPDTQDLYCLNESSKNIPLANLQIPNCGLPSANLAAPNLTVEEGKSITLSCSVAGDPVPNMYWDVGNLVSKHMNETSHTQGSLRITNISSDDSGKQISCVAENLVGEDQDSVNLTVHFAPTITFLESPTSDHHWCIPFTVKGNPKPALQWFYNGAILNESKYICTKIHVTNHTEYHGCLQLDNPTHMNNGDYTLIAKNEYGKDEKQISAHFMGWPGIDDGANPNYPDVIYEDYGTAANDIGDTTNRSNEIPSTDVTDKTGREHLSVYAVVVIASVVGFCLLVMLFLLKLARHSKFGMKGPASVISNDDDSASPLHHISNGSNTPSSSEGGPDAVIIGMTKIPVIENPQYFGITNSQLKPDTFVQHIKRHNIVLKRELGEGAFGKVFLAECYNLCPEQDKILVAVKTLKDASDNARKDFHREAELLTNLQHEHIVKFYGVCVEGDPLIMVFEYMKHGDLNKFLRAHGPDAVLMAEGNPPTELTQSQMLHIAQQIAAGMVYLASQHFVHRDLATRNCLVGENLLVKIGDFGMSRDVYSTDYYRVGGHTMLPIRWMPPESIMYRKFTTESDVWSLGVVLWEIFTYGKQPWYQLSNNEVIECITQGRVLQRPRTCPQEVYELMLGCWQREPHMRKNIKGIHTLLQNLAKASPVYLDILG
T1 sequence (Q9UM73 19-1620 L1196M/G1202R): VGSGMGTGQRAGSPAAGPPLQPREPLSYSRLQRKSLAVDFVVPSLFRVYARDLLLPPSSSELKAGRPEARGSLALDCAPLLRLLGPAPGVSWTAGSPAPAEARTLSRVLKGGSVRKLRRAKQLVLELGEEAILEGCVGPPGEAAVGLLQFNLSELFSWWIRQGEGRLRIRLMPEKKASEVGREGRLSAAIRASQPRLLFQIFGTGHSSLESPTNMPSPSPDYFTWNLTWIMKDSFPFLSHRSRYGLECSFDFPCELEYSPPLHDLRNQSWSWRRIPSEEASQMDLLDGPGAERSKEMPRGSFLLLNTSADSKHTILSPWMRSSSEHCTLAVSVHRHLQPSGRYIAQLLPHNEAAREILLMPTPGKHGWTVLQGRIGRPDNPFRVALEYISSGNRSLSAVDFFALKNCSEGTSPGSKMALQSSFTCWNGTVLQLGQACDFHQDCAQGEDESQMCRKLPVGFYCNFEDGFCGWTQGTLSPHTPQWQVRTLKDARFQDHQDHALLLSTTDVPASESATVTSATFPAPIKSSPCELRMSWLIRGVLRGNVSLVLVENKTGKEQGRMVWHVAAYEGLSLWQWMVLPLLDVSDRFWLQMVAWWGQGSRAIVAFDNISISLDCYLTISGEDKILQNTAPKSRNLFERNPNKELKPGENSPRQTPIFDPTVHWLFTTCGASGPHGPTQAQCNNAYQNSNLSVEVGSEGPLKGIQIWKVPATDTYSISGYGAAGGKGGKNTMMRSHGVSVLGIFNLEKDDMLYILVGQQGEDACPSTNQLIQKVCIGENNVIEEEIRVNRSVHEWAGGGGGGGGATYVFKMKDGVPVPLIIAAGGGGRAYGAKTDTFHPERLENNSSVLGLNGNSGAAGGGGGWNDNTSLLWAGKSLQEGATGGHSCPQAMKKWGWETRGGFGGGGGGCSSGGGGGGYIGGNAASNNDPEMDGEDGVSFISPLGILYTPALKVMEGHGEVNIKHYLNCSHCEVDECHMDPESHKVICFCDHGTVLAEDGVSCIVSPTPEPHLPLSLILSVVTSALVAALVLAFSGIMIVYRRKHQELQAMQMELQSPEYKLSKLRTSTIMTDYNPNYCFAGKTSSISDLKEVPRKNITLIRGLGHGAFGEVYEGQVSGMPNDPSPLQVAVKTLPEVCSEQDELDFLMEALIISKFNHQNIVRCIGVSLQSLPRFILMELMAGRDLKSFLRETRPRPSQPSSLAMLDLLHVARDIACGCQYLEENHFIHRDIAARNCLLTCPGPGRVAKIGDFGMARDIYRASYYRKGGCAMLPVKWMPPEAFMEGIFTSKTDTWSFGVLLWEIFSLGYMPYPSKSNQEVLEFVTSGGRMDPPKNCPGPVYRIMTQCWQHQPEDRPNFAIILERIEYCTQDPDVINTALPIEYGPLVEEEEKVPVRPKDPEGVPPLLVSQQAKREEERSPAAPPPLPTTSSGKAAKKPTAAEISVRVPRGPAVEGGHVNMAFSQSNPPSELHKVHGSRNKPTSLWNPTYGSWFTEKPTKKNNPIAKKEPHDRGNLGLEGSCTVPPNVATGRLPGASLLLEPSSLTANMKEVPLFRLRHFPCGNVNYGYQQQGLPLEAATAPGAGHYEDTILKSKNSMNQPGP
T3 sequence (P11712 whole entry): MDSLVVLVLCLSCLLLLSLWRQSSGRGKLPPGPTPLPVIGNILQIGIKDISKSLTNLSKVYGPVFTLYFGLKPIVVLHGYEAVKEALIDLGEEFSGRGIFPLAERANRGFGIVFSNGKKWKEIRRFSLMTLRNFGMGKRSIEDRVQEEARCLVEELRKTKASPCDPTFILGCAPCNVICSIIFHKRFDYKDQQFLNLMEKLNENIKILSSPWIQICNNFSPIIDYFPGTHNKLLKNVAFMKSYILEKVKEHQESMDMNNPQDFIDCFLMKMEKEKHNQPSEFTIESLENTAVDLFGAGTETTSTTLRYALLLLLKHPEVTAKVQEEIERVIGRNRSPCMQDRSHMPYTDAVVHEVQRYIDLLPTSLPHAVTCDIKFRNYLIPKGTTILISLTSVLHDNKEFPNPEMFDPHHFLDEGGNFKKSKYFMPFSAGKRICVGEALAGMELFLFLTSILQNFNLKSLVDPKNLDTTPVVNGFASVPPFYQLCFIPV

For `C#Cc1nn2cc3c4nc2c1C(=O)NC(C)(C)COc1ccc(F)cc1CN4[C@H](C(F)F)CO3` [Compound 019], the IC50 turned out to be 0.9 nM at ALK(G1202R/L1196M), 2.5 nM at TRKB, 1.7 nM in data set [1] and 3.5 nM in the data set with Ba/F3-TEL-TRKB. The “selectivity: inhibition against ALK-mutant cells versus TRKB phenotypic cells” value in data set [1] (stronger inhibition of ALK-mutant cells, relatively weaker of TRKB phenotypic cells) is recorded as “excellent selectivity”. Further, in data set [2] (read-out: Apparent volume of distribution Vd), the Vd is 0.274 L/kg. The AUC(0-t) in data set [2] (read-out: Area under the curve AUC0-last) is 15.2 µM·h. In data set [2] (read-out: Half-life T1/2 (converted)), the half-life was 1.28 h.
Regarding `N#Cc1nn2cc3c4nc2c1C(=O)N[C@H]1C[C@H](C1)Oc1ccc(F)cc1CN4[C@H](C(F)F)CO3` [Compound 024], the IC50 was 2.3 nM at ALK(G1202R/L1196M); 5.3 nM at TRKB; 1.6 nM in data set [1]; 0.8 nM with Ba/F3-TEL-TRKB; 2120 nM against CYP2C9; over 50000 nM at CYP3A4-M.
In the case of `N#Cc1nn2cc3c4nc2c1C(=O)NC1(CCC1)COc1ccc(F)cc1CN4[C@H](C(F)F)CO3` [Compound 022], the IC50 at ALK(G1202R/L1196M) was 7.8 nM; at TRKB it was 24.7 nM; in data set [1] it was 4.2 nM; with Ba/F3-TEL-TRKB it was 2.3 nM; against CYP2C9, 460 nM; at CYP3A4-M it was over 50000 nM.
Regarding `CC1(C)COc2ncc(F)cc2CN2c3nc4c(cc3OC[C@H]2C(F)F)ncn4C(=O)N1` [Compound 013], in data set [3], the efflux ratio at 2.5 h, 2 µM turned out to be 0.77. Also, in data set [3] (2 µM, 150 minutes, pH 7.40), the Papp A→B at 2.5 h, 2 µM came out at 11.8 ×10⁻⁶ cm/s and the Papp B→A at 2.5 h, 2 µM was 9.02 ×10⁻⁶ cm/s. Moreover, the IC50 in data set [1] came to 1.2 nM. Moreover, in the data set on Ba/F3-TEL-TRKB, the IC50 amounted to 0.3 nM.

Usually efflux ratio stands for a quotient of directional permeabilities that is used to spot active efflux. By Papp A→B is commonly meant how fast a substance crosses the layer from the apical side. Lower therefore signals slow passage. The term Papp B→A denotes the apparent permeability from the basolateral to the apical side of a cell layer.
